Source: patent US20150004106A1, “ACNE treatment method” (priority 2013, published 2015)

What was measured:
[1] = alcohols; cited from earlier work
[2] = test system: acne; assay: case study of topical beta-sitosterol treatment of acne; type: in vivo; details: for reduction in acne: end of study, after four weeks of application; for mean reduction in acne: first week
Text: This vehicle containing the beta-sitosterol is applied to the sites of the subcutaneous gland disorders on a twice daily basis (morning and evening).
FIG. 4 is a table indicating the results found in a case study.
The study used a cross section of the population having a distribution of sexes, ages, and areas being affected.
At the end of the study, after four weeks of application, the women found a fifty percent reduction with the men showing a forty-five percent reduction.

CCC(CCC(C)C1CCC2C3CC=C4CC(O)CCC4(C)C3CCC12C)C(C)C (stereo not drawn) [beta-sitosterol, 17-(5-Ethyl-6-methylheptan-2-yl)-10-13-dimethyl-2,3,4,7,8,9,11,12,14,16,17-deodeccahydrom-1H-cyclopental(alpha)phenanthren-3-ol]
solubility [1]: hydrophobic and soluble in alcohols | change of acne in the affected areas ([2]; all cases, start of use): immediate reduction in the acne | change of acne with continuous use ([2]; all of the subjects, continuous use): further reductions in acne | reduction in acne ([2]; men): forty-five | mean reduction in acne ([2]; men): 10% | reduction in acne ([2]; women): fifty | mean reduction in acne ([2]; women): 10%
